Test results taken from patent publication US20240209028A1, “CNP COMPOUNDS” (priority 2022, published 2024).
Like-named read-outs stand apart in the source and are kept apart here. Starred links: 1 amine or outer side, 2 acyl side, 3 side chain; linkers in the order of their positions; H or OH if unused. Positions of bridges follow the written chain, without caps; N, C: chain ends. Residues, ends and D or L forms follow the SMILES beside them. No end group written: not given here. *: point of attachment. C18 diacid = O=C(O)CCCCCCCCCCCCCCCCC(=O)*; γGlu = O=C(O)[C@H](CCC(=O)[*:2])N[*:1]; C18d = not defined here; AEEA = NCCOCCOCC(=O)O

Key:
[1] = Local tolerance of CNP compounds in rats (s.c. injection, histopathology); type: in vivo, Sprague Dawley rat; settings: rat, s.c. 350 μl, about 1000 nmol/ml, 5 days post injection
Method: The purpose of this study was to evaluate the local tissue reaction to subcutaneous injection of CNP compounds in rats.
Procedure: The CNP compounds were formulated according to the principles described in General Methods of Preparation-Method G. Each Sprague Dawley rat (male, 10-11 weeks of age at arrival, Janvier, France) was dosed s.c. with 250 or 350 uL of the same compound (formulation concentration of 1000 nmol/mL) 120 h prior to tissue collection resulting in a total of two injections for each animal (Table 15). Injection site (flank or neck) was alternated across animals within each group and time point.
Animals had access to tap water and food (Altromin 1324) ad libitum. Group size was n=3 for vehicles and positive control, and n=4 for test compounds. Vehicles and compounds were formulated in either 5 mM sodium acetate, 250 mM glycerol, pH 4.0 or 8 mM sodium phosphate, 250 mM glycerol, pH 7.4 as shown in Table 16.
The animals were anesthetized with isoflurane. Via an electric shaving machine, a squared area of fur (2 cm×2 cm) was removed either from the rats' neck or flank area). For dosing, a new injection needle (25G canula, 1 ml syringe) was placed in the middle of the square border closest to the animal's head and the needle was inserted into the skin from the border towards the center of the square. […] On the day of tissue collection, the rats were deeply anaesthetized with isoflurane and euthanized by exsanguination. The injection sites were inspected and scored with regards to pathological lesions. The injection sites were evaluated, and any changes were noted (location, colour, shape and size), and sampled for histology preparation.
The injection sites were removed and fixed in 4% phosphate buffered neutral formaldehyde in sealed plastic containers.
Each injection site was subsequently cut into three sections 0.8 cm, 1.0 cm and 1.2 cm from the square border where the injection needle was placed, and, respectively, these sections represented the injection sites and the adjacent tissue. The tissue was processed, embedded in paraffin and cut in 2-4 μm thin sections, stained with the haematoxylin and eosin (H&E), and evaluated microscopically with a light microscope. Histopathological changes were graded on a 5-level scale (Minimal (Min), Mild (Mil), Moderate (Mod), Marked (Mar) and Severe (Sev)).

[2] = CNP local tolerance study in LYD pigs (s.c. injection, histopathology); type: in vivo, domestic LYD pig; settings: LYD pig, s.c., approx. 4400 μM, 4 or 5 days after injection
Description: The purpose of this study was to evaluate the local tissue reaction response to subcutaneous injection of CNP compounds in pigs.
Procedure: In domestic pigs, the injection site was subjected to histopathologic examination after subcutaneous dosing. Injections were placed mid-back between the shoulder and hip on both sides of the dorsal midline, and one or two days before injection sites of 2×2 cm were shaved and marked by permanent ink under light anaesthesia. Each injection consisted of 100 or 200 μl formulation with a concentration of approx. 4400 μM. CNP compound formulations were prepared according to the principles in General Methods of Preparation—Method G, and were either A) 8 mM sodium phosphate, 250 mM glycerol, pH 6.5, B) 5 mM sodium acetate, 250 mM glycerol, pH 4.0 or C) 5 mM sodium acetate, 240 mM propylene glycol, pH 4.0 and physiological saline was included as negative control.
On Day 1 the pigs were lightly anaesthetised. An insulin pen (NovoPen 4) and insulin needle (NovoTwist 32G/5 mm) were used for accurate deposition of the CNP formulations in the subcutaneous fat tissue with the needle perpendicular to the skin. On Day 5 (4 days post injection) or 6 (5 days post injection), the pigs were euthanised, and the injection sites were removed and fixed in 4% phosphate buffered neutral formaldehyde in sealed plastic containers. The tissue blocks were prefixed for 2-4 hours in 10% buffered formalin, cut into 2 mm thick slabs with a multi knife, examined for macroscopic changes and finally fixed overnight in cassettes. Two slabs of tissue were selected for light microscopic evaluation where the tissue reaction was maximal or alternatively in the central part of the injection site. Three to four 2-4 μm sections were cut from three levels at 100 μm distance, stained with haematoxylin and eosin (H&E) and evaluated in a light microscope. Histopathological changes were graded on a 5-level scale ((Minimal (Min), Mild (Mil), Moderate (Mod), Marked (Mar) and Severe (Sev)). The studies are summarised in Table 18.
Results: The results are summarised in Table 19. * Necrosis was used as a marker for local subcutaneous reactions; **NAD: No Abnormalities Detected

neprilysin (NEP) [3] = biological target: T1, neprilysin (NEP) (Homo sapiens, UniProt P08473); test: In vitro neprilysin stability; settings: recombinant human neprilysin (rhNEP), pH 7.4
T1 sequence (P08473 whole entry): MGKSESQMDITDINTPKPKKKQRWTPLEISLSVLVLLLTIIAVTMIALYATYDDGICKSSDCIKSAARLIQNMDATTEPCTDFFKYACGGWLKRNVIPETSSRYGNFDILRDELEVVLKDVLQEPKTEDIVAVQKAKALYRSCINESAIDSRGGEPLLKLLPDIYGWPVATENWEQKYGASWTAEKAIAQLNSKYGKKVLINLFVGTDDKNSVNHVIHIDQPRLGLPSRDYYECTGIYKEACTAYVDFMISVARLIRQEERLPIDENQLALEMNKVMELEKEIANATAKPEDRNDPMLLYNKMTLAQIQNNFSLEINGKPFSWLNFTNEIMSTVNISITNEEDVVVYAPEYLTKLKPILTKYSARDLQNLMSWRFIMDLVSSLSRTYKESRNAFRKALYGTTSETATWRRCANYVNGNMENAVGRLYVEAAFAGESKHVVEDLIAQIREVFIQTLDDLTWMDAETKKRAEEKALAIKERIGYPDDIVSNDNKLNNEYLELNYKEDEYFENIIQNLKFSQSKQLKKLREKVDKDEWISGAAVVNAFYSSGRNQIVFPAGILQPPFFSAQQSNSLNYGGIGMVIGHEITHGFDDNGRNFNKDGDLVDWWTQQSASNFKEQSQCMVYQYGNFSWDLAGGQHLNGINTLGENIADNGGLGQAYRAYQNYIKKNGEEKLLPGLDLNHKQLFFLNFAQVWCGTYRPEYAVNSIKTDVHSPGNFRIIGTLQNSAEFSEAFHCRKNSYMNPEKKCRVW

[4] = PK after i.v. and s.c. administration to Göttingen minipig; settings: female, in vivo, Göttingen Minipig
Method: The purpose of this study was to investigate pharmacokinetic and pharmacodynamic properties after intravenous (i.v.) and subcutaneous (s.c.) administration to Gottingen Minipig and domestic LYD pig, and to estimate bioavailability after s.c. dosing. Quantitative plasma analysis of CNP and cGMP levels were performed as described in
Animals and dosing: The pharmacokinetic and pharmacodynamic studies in Gottingen Minipig or domestic LYD pig were conducted at CRO Minerva Imaging or Novo Nordisk A/S, respectively. CNP compounds were dosed to normal female 1) Gottingen minipigs 6-12 months of age with an average weight of 22 kg or 2) domestic LYD pigs 4-5 months of age with and average weight of 80 kg. At least one week prior to dosing, permanent central venous catheters were implanted for blood sampling and intravenous (i.v.) dosing. For subcutaneous (s.c.) dosing, the pigs were ultrasound scanned and the optimal injection area laterally on the neck marked by a permanent tattoo. An insulin pen (NovoPen Echo or NovoPen 4) and insulin needle (NovoFine 32G/4 mm or NovoTwist 32G/5 mm) were used for accurate deposition of the CNP formulations in the subcutaneous fat tissue with the needle perpendicular to the skin.
CNP compounds were formulated according to the principles in General Methods of Preparation—Method G and were either A) 8 mM sodium phosphate, 250 mM glycerol, pH 6.5, B) 5 mM sodium acetate, 250 mM glycerol, pH 4.0, C) 5 mM sodium acetate, 240 mM propylene glycol, pH=4.0, D) 8 mM sodium phosphate, 250 mM glycerol, pH 7.5 or E) 20 mM sodium phosphate, 223 mM propylene glycol, pH 6.0.
Intravenously, the CNP compounds were dosed at 30-60 nmol/kg to Minipig and 15-43 nmol/kg to domestic pig using formulations A-E. Subcutaneously, the CNP compounds were dosed at 55-62 nmol/kg to Minipig and 20-30 nmol/kg to domestic pig using formulations A-D.
Sampling: Blood samples of approximately 1 mL were collected pre dose and up to 14 days post dose into EDTA-coated tubes (8 mM) for cGMP and CNP compound analysis by LC-MS. In few instances, cGMP was only analysed up to 48 hours post dose after intravenous dosing in domestic LYD pig. The blood samples were kept on wet ice for maximum 30 minutes until centrifugation for 10 minutes at 4° C. and minimum 1500G, and the plasma samples were stored at −20° C. until analysis.
Plasma concentration-time profiles were analyzed by non-compartmental PK analysis using Phoenix WinNonlin 8.1, Pharsight Inc., Mountain View, CA, USA. Calculation of the area under the plasma concentration-time curve (AUC) was based on the “linear up log down” method, and uniform weighting was used for estimation of the terminal rate constant (λz). S.c. bioavailability (F) was calculated as the dose-normalized AUC (AUC/dose) after s.c. administration divided by the AUC/dose after i.v. administration. […]

neprilysin (NEP) [5] = biological target: T1, neprilysin (NEP)
[6] = biological target: Recombinant human neprilysin (rhNEP; R&D Systems) (human) (UniProt P08473); test: cell-based or functional assay
Recombinant human neprilysin (rhNEP; R&D Systems) (human), sequence (P08473 52-750 limits assumed): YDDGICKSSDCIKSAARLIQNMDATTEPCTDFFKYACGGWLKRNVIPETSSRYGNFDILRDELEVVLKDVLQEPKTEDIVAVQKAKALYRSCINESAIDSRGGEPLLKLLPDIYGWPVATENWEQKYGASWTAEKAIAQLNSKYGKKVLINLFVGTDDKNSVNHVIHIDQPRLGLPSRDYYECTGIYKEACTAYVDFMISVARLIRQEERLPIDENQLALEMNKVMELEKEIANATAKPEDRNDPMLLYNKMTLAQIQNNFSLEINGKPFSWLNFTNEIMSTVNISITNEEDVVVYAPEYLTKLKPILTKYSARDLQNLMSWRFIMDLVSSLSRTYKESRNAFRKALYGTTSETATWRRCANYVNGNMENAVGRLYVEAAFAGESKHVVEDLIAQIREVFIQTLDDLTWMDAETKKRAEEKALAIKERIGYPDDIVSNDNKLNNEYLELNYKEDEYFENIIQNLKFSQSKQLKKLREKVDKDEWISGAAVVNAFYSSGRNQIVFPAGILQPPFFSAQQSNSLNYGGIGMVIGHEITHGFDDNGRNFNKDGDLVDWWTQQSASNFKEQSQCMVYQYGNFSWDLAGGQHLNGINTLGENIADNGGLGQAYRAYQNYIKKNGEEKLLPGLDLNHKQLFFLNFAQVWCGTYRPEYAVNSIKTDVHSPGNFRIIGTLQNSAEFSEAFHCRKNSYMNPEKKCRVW

[7] = in vivo; cited from earlier work
[8] = biological target: Recombinant human neprilysin (rhNEP; R&D Systems) (human, UniProt P08473 52-750); test: cell-based or functional assay
Recombinant human neprilysin (rhNEP; R&D Systems), sequence (P08473 52-750 limits assumed): as above

**Q.** What does the source list for `CC[C@H](C)[C@@H]1NC(=O)[C@H](CCCNC(=N)N)NC(=O)[C@H](CC(=O)O)NC(=O)[C@H](CC(C)C)NC(=O)[C@@H]2CCCN2C(=O)[C@H](CC(C)C)NC(=O)CNC(=O)[C@H](Cc2ccccc2)NC(=O)[C@@H](NC(=O)CNC(=O)[C@H](CCC(N)=O)NC(=O)[C@H](CO)NC(=O)[C@H](CO)NC(=O)CNC(=O)[C@H](CCCCN)NC(=O)[C@H](CCCCN)NC(=O)[C@H](CCC(N)=O)NC(=O)[C@H](C)NC(=O)CNC(=O)[C@@H]2CCCN2C(=O)[C@H](C)NC(=O)[C@H](CCC(N)=O)NC(=O)CNC(=O)COCCOCCNC(=O)COCCOCCNC(=O)CC[C@H](NC(=O)CCCCCCCCCCCCCCCCC(=O)O)C(=O)O)CSSC[C@@H](C(=O)O)NC(=O)CNC(=O)[C@H](CC(C)C)NC(=O)CNC(=O)[C@H](CO)NC(=O)[C@H](CC(C)C)NC(=O)[C@H](CO)NC(=O)CNC1=O` [Compound 9384] ({C18 diacid-γGlu-AEEA-AEEA}-GQAPGAQKKGSSQGCFGLPLDRIGSLSGLGC-OH; disulfide 15-31)?
**A.** Number of injections by severity of necrosis: NAD (No Abnormalities Detected) [1]: 4; Number of injections by severity of necrosis: Min. [2]: 1; Number of injections by severity of necrosis: NAD [2]: 3; remaining at 1.5 h, 1000 nM (neprilysin (NEP) [3]): 87.8%; clearance ([4]; iv, i.v., read-out: CL (ml/hr/kg), Intravenous PK (converted)): 1.53 mL/h/kg; half-life ([4]; iv, i.v., read-out: T½, iv (converted)): 61 h; bioavailability ([4]; sc, s.c. bioavailability, read-out: F (%), Subcutaneous PK): 78%; half-life ([4]; sc, s.c., read-out: T½, sc (converted)): 61 h

**Q.** Which “stability in the presence of recombinant human neprilysin” value (neprilysin (NEP) [5]) does the source give for `CC[C@H](C)[C@@H]1NC(=O)[C@H](CCCNC(=N)N)NC(=O)[C@H](CC(=O)O)NC(=O)[C@H](CC(C)C)NC(=O)[C@H](CCCCN)NC(=O)[C@H](CC(C)C)NC(=O)CNC(=O)[C@H](Cc2ccccc2)NC(=O)[C@@H](NC(=O)CNC(=O)[C@H](CCCCN)NC(=O)[C@H](CO)NC(=O)[C@H](CC(C)C)NC(=O)CN)CSSC[C@@H](C(=O)O)NC(=O)CNC(=O)[C@H](CC(C)C)NC(=O)CNC(=O)[C@H](CO)NC(=O)[C@H](CCSC)NC(=O)[C@H](CO)NC(=O)CNC1=O` [Compound ID 0065, hCNP22] here?
**A.** rapidly degraded

**Q.** For “Compound ID 9483, [N-terminal(C18d-4xgGlu), 5Q, 13Q, 19S, 25P, 27E, 32L]-hCNP37 (peptide)”, which Remaining of parent after 90 min (%) [6] is on record?
**A.** 106%

**Q.** With “wt CNP: wild-type C-type natriuretic peptide; half-life of approximately two minutes” as the molecule, how does the half-life [7] read?
**A.** approximately two

B1: Compound ID 9480, [N-terminal(C18d-3xgGlu-4xOEG), des1-8, 13Q, 19Q, 25P, 32L]-hCNP37 (peptide)
peptide: {C18d-γGlu-γGlu-γGlu-AEEA-AEEA-AEEA-AEEA}-YKGAQKKGLSQGCFGLPLDRIGSLSGLGC
modifications: disulfide 13-29 (inferred); reading uncertain; also: printed as [N-terminal(C18d-3xgGlu-4xOEG), des1-8, 13Q, 19Q, 25P, 32L]-hCNP37
**Q.** For B1, which “Remaining of parent after 90 min (%)” value [8] is on record?
**A.** 98.3%

B2: Compound ID 9407, [N-terminal(C18d-5xgGlu-4xOEG), des1-5, 13Q, 19Q, 25P, 32L]-hCNP37 (peptide)
peptide: {C18d-γGlu-γGlu-γGlu-γGlu-γGlu-AEEA-AEEA-AEEA-AEEA}-ARKYKGAQKKGLSQGCFGLPLDRIGSLSGLGC
modifications: disulfide 16-32 (inferred); reading uncertain; also: printed as [N-terminal(C18d-5xgGlu-4xOEG), des1-5, 13Q, 19Q, 25P, 32L]-hCNP37
**Q.** Which “Remaining of parent after 90 min (%)” value [8] does the source give for B2 here?
**A.** 96.6%

B3: Compound ID 9435, [N-terminal(C18d-2xgGlu-4xOEG), des1-8, 13Q, 17G, 19Q, 25P, 32L]-hCNP37 (peptide)
peptide: {C18d-γGlu-γGlu-AEEA-AEEA-AEEA-AEEA}-YKGAQKKGGSQGCFGLPLDRIGSLSGLGC
modifications: disulfide 13-29 (inferred); reading uncertain; also: printed as [N-terminal(C18d-2xgGlu-4xOEG), des1-8, 13Q, 17G, 19Q, 25P, 32L]-hCNP37
**Q.** For B3, which “Remaining of parent after 90 min (%)” value [8] is on record?
**A.** 93.2%

**Q.** For {C18d-γGlu-γGlu-γGlu-γGlu-γGlu}-QEHPQARKYKGAQKKGLSSGCFGLPLDRIGSLSGLGC (disulfide 21-37 (inferred); reading uncertain) [Compound ID 9482, [N-terminal(C18d-5xgGlu), 5Q, 13Q, 19S, 25P, 32L]-hCNP37], which “Remaining of parent after 90 min (%)” value [8] is on record?
**A.** 96.3%

B4: Compound ID 9384, [N-terminal(C18d-gGlu-2xOEG-GQAP), des1-10, 13Q, 17S, 19Q, 25P, 32L]-hCNP37 (peptide)
peptide: {C18d-γGlu-AEEA-AEEA}-GQAPGAQKKGSSQGCFGLPLDRIGSLSGLGC
modifications: disulfide 15-31 (inferred); reading uncertain; also: printed as [N-terminal(C18d-gGlu-2xOEG-GQAP), des1-10, 13Q, 17S, 19Q, 25P, 32L]-hCNP37
**Q.** With B4 as the molecule, how does the “Remaining of parent after 90 min (%)” value [8] read?
**A.** 87.8%
